Reference: patent US20140377340A1, “HLA-DR BINDING PEPTIDES AND THEIR USES” (priority 2007, published 2014)

What was measured:
purified HLA DRB1*0101 = molecular target: T1, purified HLA DRB1*0101 (Homo sapiens, UniProt P01903+P01911, A100R/D57E/F55L/F60I/F76Y/I96L/L162R/M171V/P40L/Q125E/R42F/V115G/Y59C); experiment: HLA-DR radioligand binding inhibition assay, DRB1*0101; settings: read-out: IC50 nM purified HLA DRB1 *0101; purified HLA DRB1*0101
T1 construct: purified from EBV transformed homozygous cell lines or single MHC allele transfected 721.221, C1R, or fibroblast lines; made in house
Summary of the method: (§1)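 First, HLA-DR was purified from lysates on LB3.1 columns. Then 1 μM to 1 nM protein was incubated 2 days with 1-10 nM radiolabeled peptide at pH 4 to 7. Finally, complexes were captured for 3 hours and bound cpm determined.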

purified HLA DRB1*0405 = molecular target: T2, purified HLA DRB1*0405 (Homo sapiens, UniProt P01903+P01911, A100R/A169T/D86S/F76Y/I96L/K127E/L162R/M171V/N62H/P40V/Q125Y/R42H/S133A/S149N/S66Y/V115G/V209L/W38E); experiment: HLA-DR radioligand binding inhibition assay, DRB1*0405; settings: read-out: IC50 nM purified HLA DRB1 *0405; purified HLA DRB1*0405
T2 construct: purified from EBV transformed homozygous cell lines or single MHC allele transfected 721.221, C1R, or fibroblast lines; made in house
Summary of the method: as §1

purified HLA DRB1*0901 = molecular target: T3, purified HLA DRB1*0901 (Homo sapiens, UniProt P01903+P01911, A100R/A103E/D57H/D86V/F55Y/F60I/F76Y/I96F/K127E/L162R/M171V/P40D/Q125H/Q99R/R33Q/R42F/S133A/S66N/T210M/V115G/W38K/Y107V/Y59G/Y89S); experiment: HLA-DR radioligand binding inhibition assay, DRB1*0901; settings: read-out: IC50 nM purified HLA DRB1 *0901; purified HLA DRB1*0901
T3 construct: purified from EBV transformed homozygous cell lines or single MHC allele transfected 721.221, C1R, or fibroblast lines; made in house
Experimental: Instead, wells of an opaque white 96-well Optiplate (Packard) are coated with 3 μg (100 μl@ 30 μg/ml) of HLA-specific antibody (Ab) that “capture” complexes of radiolabeled MHC and unlabeled peptide transferred from the molecular binding assay plate in 100 μl of 0.05% NP40/PBS. After a 3-hour incubation period, the supernatant is decanted and scintillation fluid (Microscint 20) added. Captured complexes are then measured on a microplate scintillation and luminescence counter (TopCount NXTTM; Packard).
HLA-DR purification. Fifteen distinct HLA-DR molecules were used in quantitative assays to measure the binding of peptides to solubilized HLA-DR molecules. […] Briefly, columns of inactivated Sepharose CL4B and Protein A Sepharose were used as pre-columns. HLA-DR molecules were captured by passage of lysates over LB3.1 monoclonal antibody (anti-HLA-DRA) columns. Antibody columns were washed with 10 mM Tris-HCL, pH8.0 with 1% (v/v) NP-40, followed by PBS containing 0.4% (w/v) n-octylglucoside.
Briefly, 1-10 nM of radiolabeled peptide was co-incubated for 2 days at either room temperature or 37° C. with 1 μM to 1 nM purified HLA-DR molecules in the presence of a cocktail of protease inhibitors. Assays were performed at various pH conditions, ranging from pH 4 to pH 7. […] After incubation, the percentage of HLA-DR-bound radioactivity is determined by capturing HLA-DR/peptide complexes on Optiplates (Packard Instruments, Meriden, Conn.) coated with the LB3.1 antibody and determining bound counts per minute using the TopCount microscintillation counter (Packard Instruments).

purified HLA DRB1*1302 = molecular target: T4, purified HLA DRB1*1302 (Homo sapiens, UniProt P01903+P01911, A100E/A169T/K41T/L162R/M171V/P40S/Q125H/Q178H/Q39Y/Q99D/R42S/S66N/T262R/V115G/W38E/Y61H); experiment: HLA-DR radioligand binding inhibition assay, DRB1*1302
T4 construct: purified from EBV transformed homozygous cell lines or single MHC allele transfected 721.221, C1R, or fibroblast lines; made in house
Summary of the method: as §1

[1] = test system: peptide-specific T cells in PBMC; experiment: 10-day interferon-gamma ELIspot with PBMC of breast or ovarian cancer patients and healthy controls; format: cell-based, human; settings: for Percent of patients with responses: fraction of breast or ovarian cancer patients with mean T cell values above cutoff (mean + 2 SD of healthy donors)
Text: Each panel represents a unique peptide and each data point is derived from one individual. The grey box (i.e. cutoff) delineates the region that constitutes the mean and two standard deviations calculated from the normal healthy individuals. The percentages represent the fraction of patients that had mean T cell values above the cutoff. The peptides that are circled are those in which a higher fraction of the patients responded compared to the normal healthy controls. These peptides are considered to be the best vaccine candidates. However, it is clear that the rigidness of this approach could potentially result in many false negatives. […] Despite this, we identified 5 candidates to move forward. The fidelity of this approach is evident from a prior study which has already shown that a HER-2/neu peptide, p884-899, which encompasses the binding motif of p885, is an HLA-DR4 epitope.
Enzyme-linked immunosorbent spot assay. A 10-day ELlspot for detecting low-frequency T cells was used to determine reactivity to the tumor antigen peptides (Table 1) as described (Knutson K L et al. J Clin Onc 2006;24: 4254-61). […] PMA/Ionomycin and the CEF pool were used as positive non-tumor related controls as previously described (Knutson, 2006).
Using predictive algorithms discussed above, candidate HLA-DR1-binding epitopes were identified. […] An interferon-gamma ELIspot assay was used to assess immunity to the indiscriminate binding peptides in 48 patients with either breast or ovarian cancer and 18 healthy controls.
Using an ELlspot assay with a limit of detection of approximately […], patient-derived PBMC were screened for reactivity against all of the HLA-DR binding peptides.

[2] = test system: 15 different HLA-DR molecules; experiment: HLA-DR binding assays, panel of 15 different HLA-DR molecules (breadth of binding); settings: number of the 15 HLA-DR molecules bound (binders: 1000 nM or better)
[3] = test system: short term T cell lines from breast or ovarian cancer patients; experiment: IFN-γ ELISpot analysis of short term T cell lines (peptide versus protein fragment; natural processing); format: cell-based, human; settings: T cell lines respond to culture peptide and to protein fragment; FIGS. 5 and 6
Text: IFN-γ ELISpot analysis of short term T cell lines generated against HER-2/neu peptides, p53 (Panel A), p83 (Panel B), p88 (Panel C) and p885 (Panel D). […] Each bar is the mean (s.e.m.) of three replicates.
FIG. 6 is identical to FIG. 5 except that the results were obtained using IGFBP-2 derived helper epitopes.

Compound	IC50 (purified HLA DRB1*0101) [nM]	IC50 (purified HLA DRB1*0405) [nM]	IC50 (purified HLA DRB1*0901) [nM]	IC50 (purified HLA DRB1*1302) [nM]	Percent of patients with responses [1] [%]	patient response rate on exclusion of one healthy individual with a robust response ([1]; recalculated cutoff, FIG. 1) [%]	Total XRN [2]	naturally processed and presented antigen [3]
CC[C@H](C)[C@H](NC(=O)[C@H](CCCCN)NC(=O)[C@@H](NC(=O)[C@H](Cc1c[nH]cn1)NC(=O)[C@H](CC(N)=O)NC(=O)[C@@H]1CCCN1C(=O)[C@H](CO)NC(=O)[C@H](CCCCN)NC(=O)[C@@H](NC(=O)[C@H](CC(C)C)NC(=O)[C@@H](NC(=O)[C@H](CC(N)=O)NC(=O)[C@H](CCCNC(=N)N)NC(=O)[C@H](C)N)C(C)C)C(C)C)C(C)C)C(=O)N[C@H](C(=O)O)[C@@H](C)O	65	10500	5780	15				
CC[C@H](C)[C@H](N)C(=O)N[C@@H](CCCCN)C(=O)N[C@@H](Cc1c[nH]c2ccccc12)C(=O)N[C@@H](CCSC)C(=O)N[C@@H](C)C(=O)N[C@@H](CC(C)C)C(=O)N[C@@H](CCC(=O)O)C(=O)N[C@@H](CO)C(=O)N[C@H](C(=O)N[C@@H](CC(C)C)C(=O)N[C@@H](CCCNC(=N)N)C(=O)N[C@@H](CCCNC(=N)N)C(=O)N[C@@H](CCCNC(=N)N)C(=O)N[C@@H](Cc1ccccc1)C(=O)N[C@H](C(=O)O)[C@@H](C)O)[C@@H](C)CC [Peptide 9019.0003]					4	15	10	
CC(C)C[C@H](NC(=O)[C@H](CO)NC(=O)[C@H](C)NC(=O)[C@H](CC(N)=O)NC(=O)[C@@H](NC(=O)[C@@H]1CCCN1C(=O)[C@H](CC(C)C)NC(=O)[C@H](Cc1ccc(O)cc1)NC(=O)[C@@H](NC(=O)[C@H](CC(C)C)NC(=O)[C@H](CCC(=O)O)NC(=O)[C@H](CC(C)C)NC(=O)[C@@H](N)CC(N)=O)[C@@H](C)O)[C@@H](C)O)C(=O)N[C@@H](CO)C(=O)N[C@@H](Cc1ccccc1)C(=O)O [Peptide 9019.0030]					15		12	naturally processed and presented antigens
CC[C@H](C)[C@H](NC(=O)[C@@H]1CCCN1)C(=O)N[C@@H](CCCCN)C(=O)N[C@@H](Cc1c[nH]c2ccccc12)C(=O)N[C@@H](CCSC)C(=O)N[C@@H](C)C(=O)N[C@@H](CC(C)C)C(=O)N[C@@H](CCC(=O)O)C(=O)N[C@@H](CO)C(=O)N[C@H](C(=O)N[C@@H](CC(C)C)C(=O)N[C@@H](CCCNC(=N)N)C(=O)N[C@@H](CCCNC(=N)N)C(=O)N[C@@H](CCCNC(=N)N)C(=O)N[C@@H](Cc1ccccc1)C(=O)O)[C@@H](C)CC [Peptide 9019.0087]					25		13	naturally processed and presented antigens
CC[C@H](C)[C@H](NC(=O)[C@@H](NC(=O)[C@H](CC(C)C)NC(=O)[C@H](CCCCN)NC(=O)[C@H](C)NC(=O)[C@@H](NC(=O)[C@@H](NC(=O)[C@@H]1CCCN1C(=O)[C@@H]1CCCN1C(=O)[C@H](CC(N)=O)NC(=O)[C@H](Cc1c[nH]c2ccccc12)NC(=O)[C@H](Cc1ccccc1)NC(=O)[C@@H](NC(=O)[C@H](CC(C)C)NC(=O)[C@@H](N)CC(C)C)[C@@H](C)O)[C@@H](C)O)[C@@H](C)O)[C@@H](C)O)C(=O)O [Peptide 9019.0105]					17		10	
CC(C)C[C@H](NC(=O)[C@H](CC(N)=O)NC(=O)[C@H](CO)NC(=O)[C@@H](NC(=O)[C@H](Cc1ccccc1)NC(=O)[C@H](CS)NC(=O)[C@H](C)NC(=O)[C@@H](N)Cc1ccc(O)cc1)C(C)C)C(=O)N[C@@H](C)C(=O)N[C@H](C(=O)NCC(=O)N[C@@H](CCCNC(=N)N)C(=O)N[C@@H](CC(N)=O)C(=O)N[C@@H](CC(N)=O)C(=O)N[C@@H](CO)C(=O)O)[C@@H](C)O [Peptide 9019.0141]					25		9	
CC[C@H](C)[C@H](NC(=O)[C@H](Cc1c[nH]cn1)NC(=O)[C@H](CC(C)C)NC(=O)[C@H](CO)NC(=O)[C@H](Cc1ccc(O)cc1)NC(=O)[C@H](CC(C)C)NC(=O)[C@H](Cc1c[nH]cn1)NC(=O)[C@H](CCC(=O)O)NC(=O)[C@H](CC(C)C)NC(=O)[C@@H]1CCCN1C(=O)CNC(=O)[C@H](CCCNC(=N)N)NC(=O)[C@@H](N)CCC(=O)O)C(=O)N1CCC[C@H]1C(=O)N[C@@H](CC(N)=O)C(=O)O [Peptide 9019.0190, EROPLEHLYSLHIPN]					23		8	naturally processed peptides
